Source: patent publication US8937072B2, “Substituted cyanoaniline compounds, preparation and use thereof” (Sinochem Corporation, priority 2011, dated 2015)
Where two headings read alike, the source gives them in different places.

What was measured:
plasmopora viticola = conditions: at high dose; cited from earlier work
cucumber gray mold = assay: Activity in vitro (96-well, High Through Put): inhibition rate against cucumber gray mold; format: cell-based; conditions: for inhibition at 0.3 µg/mL: 0.3 mg/L; for inhibition at 8.3 µg/mL: 8.3 mg/L; for inhibition at 25 µg/mL: dose 25 mg/L
Procedure, shortened: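 Scored visually at 24 hours relative to control, the readout is pathogen germination or growth. Test solutions used acetone, methanol or DMF as solvent and were mixed with pathogen suspension in a sterile high-throughput format at constant temperature.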

cucumber downy mildew = assay: Protectant activity in vivo (whole plant) against cucumber downy mildew; conditions: Cucumis sativus, 168 h; for pest or weed control at 12.5 µg/mL: 12.5 mg/L; for pest or weed control at 400 µg/mL: dose 400 mg/L
Procedure, shortened: (§1)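 Whole plants sprayed with test solution, water plus 0.1% Tween-80 and no more than 5% solvent, then inoculated with the pathogen after 24 h. Plants held in humidity chamber or directly in greenhouse depending on fungus. Disease control scored by eye at about 7 days.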

corn rust = assay: Protectant activity in vivo (whole plant) against corn rust; conditions: Zea mays, 168 h; for pest or weed control at 6.25 µg/mL: 6.25 mg/L; for pest or weed control at 25 µg/mL: 25 mg/L; for pest or weed control at 100 µg/mL: 100 mg/L
Procedure, shortened: as §1

rice blast = assay: microbe, parasite or virus in culture; format: cell-based; conditions: Pyricularia oryzae; for inhibition at 0.03 µg/mL: read-out: the inhibition rate against rice blast (%) 0.03 mg/L; for inhibition at 0.1 µg/mL: read-out: the inhibition rate against rice blast (%) 0.1 mg/L; for inhibition at 0.3 µg/mL: read-out: the inhibition rate against rice blast (%) 0.3 mg/L
wheat powdery mildew = assay: Protectant activity in vivo (whole plant) against wheat powdery mildew; conditions: Triticum aestivum, 168 h; for pest or weed control at 400 µg/mL: dose 400 mg/L
Method: The method is as followed: The whole plant is used in this test. The compound is dissolved in a proper solvent to get mother solution. The proper solvent is selected from acetone, methanol, DMF and so on according to their dissolving capability to the sample. The volume rate of solvent and testing solution (v/v) is equal to or less than 5%. The mother solution is diluted with water containing 0.1% tween-80 to get the testing solution whose concentration is designed. The testing solution is sprayed to the host plant by a special plant sprayer. The plant is inoculated with fungus after 24 hours. According to the infecting characteristic of fungus, the plant is stored in a humidity chamber and then transferred into greenhouse after infection is finished. And the other plants are placed in greenhouse directly. The activity of compound is obtained by eyeballing after 7 days in common.

blast of rice = conditions: at 500 ppm; cited from earlier work
canker of citrus fruit = conditions: at 500 ppm; cited from earlier work
[1] = 0.9 mg/L, read-out: the inhibition rate against cucumber gray mold (%)
[2] = 2.8 mg/L, read-out: the inhibition rate against cucumber gray mold (%)
[3] = read-out: the inhibition rate against cucumber gray mold (%)
[4] = 25 mg/L, read-out: the protectant activity (%) against cucumber downy mildew
[5] = 50 mg/L, read-out: the protectant activity (%) against cucumber downy mildew
[6] = 100 mg/L, read-out: the protectant activity (%) against cucumber downy mildew
[7] = 400 mg/L, read-out: the protectant activity (%) against corn rust
[8] = dose 400 mg/L, read-out: protectant activity against corn rust in vivo
[9] = read-out: inhibition rate against rice blast
[10] = in vitro, dose 2.8 mg/L, read-out: inhibition rate against cucumber gray mold
[11] = dose 25 mg/L, read-out: protectant activity against cucumber downy mildew in vivo
[12] = dose 100 mg/L, read-out: protectant activity against cucumber downy mildew in vivo

SMILES	inhibition at 0.3 µg/mL (cucumber gray mold)	inhibition at 0.9 µg/mL (cucumber gray mold; [1])	inhibition at 2.8 µg/mL (cucumber gray mold; [2])	inhibition at 8.3 µg/mL (cucumber gray mold; [3])	inhibition at 25 µg/mL (cucumber gray mold; in vitro)	pest or weed control at 12.5 µg/mL (cucumber downy mildew)	pest or weed control at 25 µg/mL (cucumber downy mildew; [4])	pest or weed control at 50 µg/mL (cucumber downy mildew; [5])	pest or weed control at 100 µg/mL (cucumber downy mildew; [6])	pest or weed control at 400 µg/mL (cucumber downy mildew)	pest or weed control at 6.25 µg/mL (corn rust)	pest or weed control at 25 µg/mL (corn rust)	pest or weed control at 100 µg/mL (corn rust)	pest or weed control at 400 µg/mL (corn rust; [7])	pest or weed control at 400 µg/mL (corn rust; [8])	inhibition at 25 µg/mL (rice blast; [9])	inhibition at 0.03 µg/mL (rice blast)	inhibition at 0.1 µg/mL (rice blast)	inhibition at 0.3 µg/mL (rice blast)	pest or weed control at 400 µg/mL (wheat powdery mildew)	other results
N#Cc1c(Cl)c(Cl)c(Nc2ccccc2)c(C#N)c1Cl [KC1]	0%	0%	0%	0%	0%	0%	0%	0%	0%	0%	0%	0%	0%	0%	0%	0%	0%	0%	0%	0%	activity on relevant diseases such as plasmopora viticola (plasmopora viticola): some activity
Cc1ccc(Nc2c(Cl)c(Cl)c(C#N)c(Cl)c2C#N)cc1 [KC3]	0%	0%	0%	0%	0%	0%	0%	0%	0%	0%	0%	0%	0%	0%	0%	0%	0%	0%	0%	0%	–
COc1ccc(Nc2c(Cl)c(Cl)c(C#N)c(Cl)c2C#N)cc1 [KC4]	0%	0%	50%	100%	–	–	–	–	–	–	0%	0%	0%	0%	0%	–	0%	0%	0%	0%	inhibition at 0.9 µg/mL (cucumber gray mold; in vitro, dose 0.9 mg/L, read-out: inhibition rate against cucumber gray mold): 0%; inhibition at 2.8 µg/mL (cucumber gray mold; [10]): 50%; pest or weed control at 25 µg/mL (cucumber downy mildew; [11]): 0%; inhibition at 0.9 µg/mL (rice blast; [9]): 0%
N#Cc1c(Cl)c(Cl)c(Nc2ccc([N+](=O)[O-])cc2)c(C#N)c1Cl [KC5]	0%	0%	–	–	0%	0%	0%	–	–	–	0%	0%	–	–	0%	–	0%	0%	0%	0%	pest or weed control at 25 µg/mL (cucumber downy mildew; [11]): 0%; pest or weed control at 50 µg/mL (cucumber downy mildew; dose 50 mg/L, read-out: protectant activity against cucumber downy mildew in vivo): 20%
N#Cc1c(F)c(F)c(Nc2ccc(Cl)c(Cl)c2)c(C#N)c1F [KC12]	0%	0%	0%	80%	–	0%	0%	0%	0%	–	0%	0%	0%	0%	0%	0%	0%	0%	0%	0%	bacteriostatic diameter against blast of rice (blast of rice): 15.5 mm; inhibition at 2.8 µg/mL (cucumber gray mold; [10]): 0%; bacteriostatic diameter against canker of citrus fruit (canker of citrus fruit): 0 mm; pest or weed control at 100 µg/mL (cucumber downy mildew; [12]): 20%
N#Cc1c(Cl)c(Cl)c(Nc2ccccc2)c(Cl)c1C#N [KC14]	0%	0%	0%	0%	0%	0%	0%	0%	0%	–	0%	0%	0%	0%	0%	–	0%	0%	0%	30%	activity on relevant diseases such as plasmopora viticola (plasmopora viticola): some activity; pest or weed control at 100 µg/mL (cucumber downy mildew; [12]): 0%; pest or weed control at 100 µg/mL (wheat powdery mildew; dose 100 mg/L): 0%
N#Cc1ccc(Nc2c(Cl)c(F)c(C#N)c(F)c2C#N)cc1 [KC21]	0%	0%	0%	0%	0%	–	–	–	70%	–	–	–	–	80%	–	0%	0%	0%	0%	0%	–
N#Cc1c(F)c(Cl)c(Nc2ccc([N+](=O)[O-])cc2)c(C#N)c1F [KC22]	0%	0%	0%	0%	0%	0%	0%	0%	0%	0%	–	0%	0%	0%	0%	0%	0%	0%	0%	0%	–
N#Cc1c(Cl)c(Cl)c(C#N)c(Cl)c1Cl [STM-1]	0%	0%	0%	0%	0%	0%	0%	0%	0%	0%	0%	0%	0%	0%	0%	0%	0%	0%	0%	0%	–
N#Cc1c(Cl)c(Cl)c(Cl)c(Cl)c1C#N [STM-2]	0%	0%	0%	0%	0%	–	–	–	–	–	–	–	–	70%	–	50%	–	–	50%	0%	pest or weed control at 25 µg/mL (cucumber downy mildew; [11]): 10%
